Values of other authors in patent US20110123555A1, “PREPARATION AND UTILITY OF CCR5 INHIBITORS” (AUSPEX PHARMACEUTICALS, INC., priority 2006, published 2011).

Tested on: 200 clinically-derived pseudoviruses
Settings: half of which are derived from viruses resistant to existing drug classes

## Cc1nnc(C(C)C)n1C1CC2CCC(C1)N2CCC(NC(=O)C1CCC(F)(F)CC1)c1ccccc1 (stereo not shown) [Maraviroc]
  active in vitro against clinically-derived pseudoviruses: active
